Values of other authors as cited in patent US7563785B2, “Quetiapine analogs and methods of use thereof” (Hypnion, Inc., priority 2004, dated 2009).

Biological target: T1, human recombinant M1 expressed in CHO cells (Homo sapiens, UniProt P11229)
T1 construct: purchased PerkinElmer, Inc., Wellesley, Mass; host or cells: CHO cells
T1 sequence (P11229 1-460): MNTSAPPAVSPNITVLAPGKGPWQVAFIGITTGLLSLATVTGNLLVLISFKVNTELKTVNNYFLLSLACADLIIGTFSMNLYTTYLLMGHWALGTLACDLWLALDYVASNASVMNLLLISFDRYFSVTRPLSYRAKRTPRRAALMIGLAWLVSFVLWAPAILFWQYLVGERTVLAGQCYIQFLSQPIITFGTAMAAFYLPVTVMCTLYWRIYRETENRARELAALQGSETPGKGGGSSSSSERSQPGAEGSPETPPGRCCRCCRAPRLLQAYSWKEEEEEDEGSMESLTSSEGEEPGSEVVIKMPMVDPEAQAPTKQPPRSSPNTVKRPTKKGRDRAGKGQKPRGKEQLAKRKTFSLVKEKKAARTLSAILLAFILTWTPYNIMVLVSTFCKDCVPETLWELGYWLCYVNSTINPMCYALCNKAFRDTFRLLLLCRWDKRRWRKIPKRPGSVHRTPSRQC
Conditions: reference compounds; read-out: Ki of reference compounds in M1 binding assay

## C[N+]1(C)CCC(OC(=O)C(c2ccccc2)c2ccccc2)CC1 [4-DAMP methiodide]
  Ki: 270 pM
